ChEMBL document CHEMBL4431390, “Dual action Smac mimetics-zinc chelators as pro-apoptotic antitumoral agents” (Bioorg Med Chem Lett, 2016)
The source made the active and inactive calls. No cut-off for these calls is given here.

Columns and labels:
[1] = molecular target: T1, E3 ubiquitin-protein ligase XIAP (Homo sapiens, UniProt P98170); experiment: Binding affinity to XIAP BIR3 domain in Smac mimetic-sensitive human MDA-MB-231 cells assessed as increase in cleaved PARP expression at 5 uM after 24 hrs by Western blot analysis; assay type: cell-based
[2] = molecular target: T1, E3 ubiquitin-protein ligase XIAP; experiment: Displacement of FITC-Smac from human recombinant His-tagged XIAP BIR3 domain (241 to 356 residues) expressed in Escherichia coli BL21(DE3) cells after 3 hrs by fluorescence polarization assay
[3] = molecular target: T1, E3 ubiquitin-protein ligase XIAP; experiment: Binding affinity to XIAP BIR3 domain in Smac mimetic-resistant human BT549 cells assessed as increase in cellular IAP1 degradation at 5 uM after 24 hrs by Western blot analysis
[4] = molecular target: T1, E3 ubiquitin-protein ligase XIAP; experiment: Binding affinity to XIAP BIR3 domain in Smac mimetic-sensitive human MDA-MB-231 cells assessed as increase in cleaved caspase-3 expression at 5 uM after 24 hrs by Western blot analysis; assay type: cell-based
[5] = molecular target: T1, E3 ubiquitin-protein ligase XIAP; experiment: Binding affinity to XIAP BIR3 domain in Smac mimetic-sensitive human MDA-MB-231 cells assessed as increase in cellular IAP1 degradation at 5 uM after 24 hrs by Western blot analysis; assay type: cell-based
[6] = molecular target: T1, E3 ubiquitin-protein ligase XIAP; experiment: Binding affinity to XIAP BIR3 domain in Smac mimetic-resistant human MDA-MB-453 cells assessed as increase in cleaved caspase-3 expression at 5 uM after 24 hrs by Western blot analysis; assay type: cell-based
[7] = molecular target: T1, E3 ubiquitin-protein ligase XIAP; experiment: Binding affinity to XIAP BIR3 domain in Smac mimetic-resistant human MDA-MB-453 cells assessed as increase in cellular IAP1 degradation at 5 uM after 24 hrs by Western blot analysis; assay type: cell-based
[8] = molecular target: T1, E3 ubiquitin-protein ligase XIAP; experiment: Binding affinity to XIAP BIR3 domain in Smac mimetic-resistant human MDA-MB-453 cells assessed as increase in cleaved PARP expression at 5 uM after 24 hrs by Western blot analysis; assay type: cell-based
[9] = Metal chelating activity assessed as compound-Zn2+ complex formation at 50 uM after 15 mins by spectrofluorimetric analysis; assay type: functional
[10] = Metal chelating activity assessed as compound-Zn2+ complex formation; assay type: functional
MDA-MB-453 [11] = experiment: Effect on XIAP level in Smac mimetic-resistant human MDA-MB-453 cells at 5 uM after 24 hrs by Western blot analysis; assay type: functional, cell-based
[12] = molecular target: T1, E3 ubiquitin-protein ligase XIAP; experiment: Binding affinity to XIAP BIR3 domain in Smac mimetic-resistant human BT549 cells assessed as increase in cleaved caspase-3 expression at 5 uM after 24 hrs by Western blot analysis
BT-549 [13] = experiment: Cytotoxicity against Smac mimetic-resistant human BT549 cells assessed as growth inhibition after 24 hrs by CellTiter-Glo assay; assay type: functional, cell-based; details: BT-549, 24 h
MDA-MB-231 [14] = experiment: Effect on XIAP level in Smac mimetic-sensitive human MDA-MB-231 cells at 5 uM after 24 hrs by Western blot analysis; assay type: functional, cell-based
[15] = molecular target: T1, E3 ubiquitin-protein ligase XIAP; experiment: Binding affinity to XIAP BIR3 domain in Smac mimetic-resistant human BT549 cells assessed as increase in cleaved PARP expression at 5 uM after 24 hrs by Western blot analysis
MDA-MB-453 [16] = experiment: Cytotoxicity against Smac mimetic-resistant human MDA-MB-453 cells assessed as growth inhibition after 24 hrs by CellTiter-Glo assay; assay type: functional, cell-based; details: MDA-MB-453, 24 h
BT-549 [17] = experiment: Effect on XIAP level in Smac mimetic-resistant human BT549 cells at 5 uM after 24 hrs by Western blot analysis; assay type: functional, cell-based
MDA-MB-231 [18] = experiment: Cytotoxicity against Smac mimetic-sensitive human MDA-MB-231 cells assessed as growth inhibition after 24 hrs by CellTiter-Glo assay; assay type: functional, cell-based; details: MDA-MB-231, 24 h

T1 sequence (P98170 whole entry, the tested form may be a part): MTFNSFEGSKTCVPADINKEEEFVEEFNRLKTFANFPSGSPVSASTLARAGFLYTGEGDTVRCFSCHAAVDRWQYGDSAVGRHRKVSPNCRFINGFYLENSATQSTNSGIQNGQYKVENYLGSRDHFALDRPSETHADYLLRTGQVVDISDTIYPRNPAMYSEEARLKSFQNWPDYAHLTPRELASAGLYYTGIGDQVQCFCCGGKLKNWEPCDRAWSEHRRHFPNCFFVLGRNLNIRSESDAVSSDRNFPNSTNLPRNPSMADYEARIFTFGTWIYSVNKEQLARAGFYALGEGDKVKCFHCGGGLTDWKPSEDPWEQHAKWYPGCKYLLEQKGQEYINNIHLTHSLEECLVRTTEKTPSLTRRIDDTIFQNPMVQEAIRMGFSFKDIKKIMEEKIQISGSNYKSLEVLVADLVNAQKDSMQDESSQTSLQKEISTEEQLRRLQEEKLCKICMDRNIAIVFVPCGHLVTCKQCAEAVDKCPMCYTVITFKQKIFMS

Structure (SMILES) | Activity [1] | IC50 [2] | Activity [3] | Activity [4] | Activity [5] | Activity [6] | Activity [7] | Activity [8] | Activity [12] | Activity [15] | Activity [9] | Kd [10] | Activity (MDA-MB-453 [11]) | IC50 (BT-549 [13]) | Activity (MDA-MB-231 [14]) | IC50 (MDA-MB-453 [16]) | Activity (BT-549 [17]) | IC50 (MDA-MB-231 [18])
C=CCc1cccc(/C=N/NC(=O)[C@@H](NC(=O)[C@@H]2CC[C@@H]3CC[C@H](CCNC(=O)c4ccccc4)[C@H](NC(=O)[C@H](CC)NC)C(=O)N32)c2ccccc2)c1O | Active | 1.09 µM | Active | Active | Active | inactive | Active | inactive |  |  |  |  |  |  |  |  |  | 
c1ccc(CNCc2ccccn2)nc1 |  |  |  |  |  |  |  |  |  |  | Active | 210 nM |  |  |  |  |  | 
c1ccc(CN(CCN(Cc2ccccn2)Cc2ccccn2)Cc2ccccn2)nc1 |  |  |  |  |  |  |  |  |  |  |  | 3e-07 nM |  |  |  |  |  | 
C=CCc1cccc(/C=N/NC(=O)CN2CCN(Cc3ccccc3)CC2)c1O [PAC-1] | inactive | > 10 µM |  | inactive | inactive |  |  |  |  |  |  |  | inactive | 14.3 µM | inactive | 2 µM | inactive | 4.7 µM

Continued, in another order:

Activity [1] | IC50 [2] | Activity [3] | Activity [4] | Activity [5] | Activity [6] | Activity [7] | Activity [8] | Activity [12] | Activity [15] | Structure (SMILES) | Activity [9] | Kd [10] | Activity (MDA-MB-453 [11]) | IC50 (BT-549 [13]) | Activity (MDA-MB-231 [14]) | IC50 (MDA-MB-453 [16]) | Activity (BT-549 [17]) | IC50 (MDA-MB-231 [18])
Active | 0.37 µM |  | Active | Active | inactive | Active | inactive |  |  | CC[C@H](NC)C(=O)N[C@@H]1C(=O)N2[C@@H](CC[C@@H]1CNC(=O)c1ccccc1)CC[C@H]2C(=O)N[C@H](C(=O)N(Cc1ccccn1)Cc1ccccn1)c1ccccc1 |  |  |  |  |  |  |  | 
Active |  | Active | Active | Active | inactive | Active | inactive | Active | Active | CC[C@H](NC)C(=O)N[C@@H]1C(=O)N2[C@@H](CC[C@@H]1CNC(=O)c1ccccc1)CC[C@H]2C(=O)NC(c1ccccc1)c1ccccc1 |  |  | inactive | > 25 µM | inactive | > 25 µM | inactive | 2.3 µM
inactive | > 10 µM |  | inactive | inactive |  |  |  |  |  | CC[C@H](NC)C(=O)N[C@@H]1C(=O)N2[C@@H](CC[C@@H]1CNC(=O)c1ccccc1)CC[C@H]2C(=O)N[C@@H](C(=O)N(Cc1ccccn1)Cc1ccccn1)c1ccccc1 |  |  |  |  |  |  |  | 
Active | 0.091 µM | Active | Active | Active | inactive | Active | inactive | Active | Active | CC[C@H](NC)C(=O)N[C@@H]1C(=O)N2[C@@H](CC[C@@H]1CNC(=O)c1ccccc1)CC[C@H]2C(=O)N[C@H](C(=O)NCCN(Cc1ccccn1)Cc1ccccn1)c1ccccc1 |  |  |  |  |  |  |  | 
inactive | > 10 µM |  | inactive | inactive |  |  |  |  |  | CC[C@H](NC)C(=O)N[C@@H]1C(=O)N2[C@@H](CC[C@@H]1CNC(=O)c1ccccc1)CC[C@H]2C(=O)N[C@@H](C(=O)NCCN(Cc1ccccn1)Cc1ccccn1)c1ccccc1 |  |  |  |  |  |  |  | 
inactive | > 10 µM |  | inactive | inactive |  |  |  |  |  | CC[C@H](NC)C(=O)N[C@@H]1C(=O)N2[C@@H](CC[C@@H]1CNC(=O)c1ccccc1)CC[C@H]2C(=O)N(Cc1ccccn1)Cc1ccccn1 |  |  |  |  |  |  |  | 
